The text below walks through data of patent US20240018124A1, “MODULATORS OF FPR1 AND METHODS OF USING THE SAME” (BIOFRONT LTD, priority 2021, published 2024).

Assay [1] addresses T1, FPR1 (Homo sapiens (Human), UniProt P21462). The experiment in a line: Reactive oxygen species (ROS) assay in human neutrophils stimulated with fMLP. The format is cell-based. Particulars: human neutrophils from whole blood; fMLP (500 nM); DCFH-DA fluorescence; read-out: Anti-ROS IC50. On the procedure: Reactive Oxygen Species (ROS) Assay
Human whole blood was collected, and ACK lysis buffer (ThermoFisher, A1049201) was added at 3 times the volume of the blood sample to lyse the red blood cells. The sample was incubated on ice for 15 minutes, and gently mixed twice during the incubation. 10 mL DPBS was then added, and the sample was centrifuged for 8 minutes. After removing the supernatant, remaining cells were resuspended in RPMI1640 medium containing 3% FBS and centrifuged again for 10 minutes. After removing the supernatant, cells were again resuspended in RPMI1640 medium containing 3% FBS. Neutrophil cell count was determined using FACS analysis by APC-labeled CD11b antibody (Biolegend, 101211) and FITC-labeled CD66b antibody (Biolegend, 305104). Neutrophils were then plated into 96-well plates (300,000/well). Plates were centrifuged and supernatant was removed. Cells were resuspended in 80 μL of compound solution (prepared in RPMI1640 medium containing 3% FBS), then incubated at room temperature for 15 minutes. 20 μL solution containing DCFH-DA (at the manufacturer's recommended concentration, Yeasen Biotechnology, 50101ES01) and fMLP (500 nM) was then added. Cells were incubated at 37° C. in 5% CO2 for 20 minutes away from light. After incubation, cells were placed on ice for 5 minutes, washed twice with 200 μL ice-cold DPBS, then resuspended in ice-cold DPBS at 100 µL/well. Fluorescence from each sample was measured at 485 nm excitation and 535 nm emission.
(§1) The effects of the compounds of the present disclosure on regulating the FPR1-mediated cell signaling were measured by monitoring the cellular cAMP level change and anti-reactive oxygen species formation in human neutrophils in the presence of an FPR1 agonist, respectively, as illustrated by the examples in Table 1.

The target in assay [2] is T1, FPR1. As to the kind of experiment: Cyclic adenosine monophosphate (cAMP) assay, CHO-K1 cells stably overexpressing hFPR1. The format is cell-based. Particulars: 2.5 μM Forskolin and 0.25 nM WKYMVm (FPR1 agonist). The protocol: Cyclic Adenosine Monophosphate (cAMP) Assay
CHO-K1 cells stably overexpressing hFPR1 were plated into 384-well cell culture plates (2,000/well/5 μL) in 1× Stimulation Buffer (LANCE Ultra cAMP Kit, Perkin Elmer, TRF0263). 1 μL compound solution (prepared in ddH2O containing 0.2% DMSO) was added to each well. Plates were centrifuged briefly, and cells were incubated at 37° C. in 5% CO2 for 10 minutes. 4 μL solution containing 2.5 μM Forskolin and 0.25 nM WKYMVm (an FPR1 agonist, GLPBIO, GC15140) was then added to each well. 5 μL of Eu-cAMP solution (diluted to manufacturer's recommended working concentration in Detection Buffer, LANCE Ultra cAMP Kit) and 5 μL of ULight-anti-cAMP solution (diluted in Detection Buffer, LANCE Ultra cAMP Kit) were added to each well. Plates were centrifuged briefly, and cells were incubated at room temperature for 1 hour. Fluorescence emission at 665 nm and 620 nm from the samples was measured by a Perkin Elmer Envision instrument.
as §1

SMILES strings stand for the structures.

T1 sequence (P21462 whole entry): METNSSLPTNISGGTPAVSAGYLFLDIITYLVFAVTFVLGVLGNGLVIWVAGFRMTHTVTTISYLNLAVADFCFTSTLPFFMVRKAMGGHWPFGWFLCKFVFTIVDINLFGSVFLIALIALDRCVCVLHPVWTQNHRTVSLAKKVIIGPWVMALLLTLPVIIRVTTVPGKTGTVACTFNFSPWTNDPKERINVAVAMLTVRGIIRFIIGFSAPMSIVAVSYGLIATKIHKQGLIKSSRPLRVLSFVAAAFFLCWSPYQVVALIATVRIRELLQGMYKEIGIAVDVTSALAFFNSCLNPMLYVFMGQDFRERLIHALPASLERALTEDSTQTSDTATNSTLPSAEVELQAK

Take `C[C@H](NC(=O)c1c(NS(=O)(=O)c2ccc(C#N)cc2)c(-c2ccc(F)cc2)nn1C)C(C)(C)C` [Compound 1, (S)-4-((4-cyanophenyl)sulfonamido)-N-(3,3-dimethylbutan-2-yl)-3-(4-fluorophenyl)-1-methyl-1H-pyrazole-5-carboxamide]: the half-inhibitory concentration (IC50) in assay [1] and in assay [2] was 100 to 1000 nM throughout.
`CC[C@H](C)NC(=O)c1c(NS(=O)(=O)c2ccccc2)c(-c2ccc(F)cc2)nn1C` [Compound 3, (S)—N-(sec-butyl)-3-(4-fluorophenyl)-1-methyl-4-(phenylsulfonamido)-1H-pyrazole-5-carboxamide]: in assay [2], the IC50 (commonly the concentration needed to halve the response being measured) was greater than 25000 nM.
On the same count and under the same terms, for `C[C@H](NC(=O)c1c(NS(=O)(=O)c2ccc(Cl)cc2)c(-c2ccncc2)nn1C)C(C)(C)C` [Compound 5, (S)-4-((4-chlorophenyl)sulfonamido)-N-(3,3-dimethylbutan-2-yl)-1-methyl-3-(pyridin-4-yl)-1H-pyrazole-5-carboxamide] the value was greater than 25000 nM.
Turning to `CO[C@H]1CC[C@@H](c2nn(C)c(C(=O)N[C@@H](C)C(C)(C)C)c2NS(=O)(=O)c2ccc(C)cc2)CC1` [Compound 6, N—((S)-3,3-dimethylbutan-2-yl)-3-((1s,4R)-4-methoxycyclohexyl)-1-methyl-4-((4-methylphenyl)sulfonamido)-1H-pyrazole-5-carboxamide], the IC50 was less than 100 nM in assay [1] and 100 to 1000 nM in assay [2].
Taken in the same sequence, the figures for `C[C@H](NC(=O)c1c(NS(=O)(=O)c2ccc(Cl)cc2)c(C2CCOCC2)nn1C)C(C)(C)C` [Compound 9, (S)-4-((4-chlorophenyl)sulfonamido)-N-(3,3-dimethylbutan-2-yl)-1-methyl-3-(tetrahydro-2H-pyran-4-yl)-1H-pyrazole-5-carboxamide] were 100 to 1000 nM and 100 to 1000 nM.
For the compound `C[C@H](NC(=O)c1c(NS(=O)(=O)c2ccc(Cl)cc2)c(C2CCOCC2)nn1C1CC1)C(C)(C)C` [Compound 10, (S)-4-((4-chlorophenyl)sulfonamido)-1-cyclopropyl-N-(3,3-dimethylbutan-2-yl)-3-(tetrahydro-2H-pyran-4-yl)-1H-pyrazole-5-carboxamide], the half-maximal inhibitory concentration (IC50) in assay [2] was greater than 25000 nM.
Still for that read-out and setting: the same measure for `C[C@H](NC(=O)c1noc(C2CCOCC2)c1NS(=O)(=O)c1ccc(Cl)cc1)C(C)(C)C` [Compound 11, (S)-4-((4-chlorophenyl)sulfonamido)-N-(3,3-dimethylbutan-2-yl)-5-(tetrahydro-2H-pyran-4-yl)isoxazole-3-carboxamide]: greater than 25000 nM.
Regarding `COCc1cccc(-c2nn(C)c(C(=O)N[C@@H](C)C(C)(C)C)c2NS(=O)(=O)c2ccc(C)cc2)c1` [Compound 15, (S)—N-(3,3-dimethylbutan-2-yl)-3-(3-(methoxymethyl)phenyl)-1-methyl-4-((4-methylphenyl)sulfonamido)-1H-pyrazole-5-carboxamide], the results for the 50% inhibitory concentration (IC50) in assay [1] and in assay [2] were 100 to 1000 nM and greater than 25000 nM, respectively.
Taken in the same sequence, the figures for `Cc1ccc(S(=O)(=O)Nc2c(C3=CCOCC3)nn(C)c2C(=O)N[C@@H](C)C(C)(C)C)cc1` [Compound 16, (S)-3-(3,6-dihydro-2H-pyran-4-yl)-N-(3,3-dimethylbutan-2-yl)-1-methyl-4-((4-methylphenyl)sulfonamido)-1H-pyrazole-5-carboxamide] were 100 to 1000 nM and 1000 to 25000 nM.
Take `Cc1ccc(S(=O)(=O)Nc2c(C3=CCC(C)(C)CC3)nn(C)c2C(=O)N[C@@H](C)C(C)(C)C)cc1` [Compound 18, (S)—N-(3,3-dimethylbutan-2-yl)-3-(4,4-dimethylcyclohex-1-en-1-yl)-1-methyl-4-((4-methylphenyl)sulfonamido)-1H-pyrazole-5-carboxamide]: the IC50 in assay [2] is greater than 25000 nM.
For `CO[C@H]1CC[C@@H](c2nn(C)c(C(=O)N[C@@H](C)C(C)(C)C)c2NS(=O)(=O)c2ccc(Cl)cc2)CC1` [Compound 19, 4-((4-chlorophenyl)sulfonamido)-N—((S)-3,3-dimethylbutan-2-yl)-3-((1S,4R)-4-methoxycyclohexyl)-1-methyl-1H-pyrazole-5-carboxamide], the IC50 in assay [1] was less than 100 nM; in assay [2], 100 to 1000 nM.
The like results for `CO[C@H]1CC[C@@H](c2nn(C)c(C(=O)N[C@@H](C)C(C)(C)C)c2NS(=O)(=O)c2ccc(C3CC3)cc2)CC1` [Compound 20, 4-((4-cyclopropylphenyl)sulfonamido)-N—((S)-3,3-dimethylbutan-2-yl)-3-((1S,4R)-4-methoxycyclohexyl)-1-methyl-1H-pyrazole-5-carboxamide] were, in that order, less than 100 nM and 100 to 1000 nM.
In the case of `CO[C@H]1CC[C@@H](c2nn(C)c(C(=O)N[C@@H](C)C(C)(C)C)c2NS(=O)(=O)c2ccc(C#N)cc2)CC1` [Compound 21, 4-((4-cyanophenyl)sulfonamido)-N—((S)-3,3-dimethylbutan-2-yl)-3-((1S,4R)-4-methoxycyclohexyl)-1-methyl-1H-pyrazole-5-carboxamide], the IC50 in assay [1] and in assay [2] was less than 100 nM in each case.
In the case of `COC1CC=C(c2nn(C)c(C(=O)N[C@@H](C)C(C)(C)C)c2NS(=O)(=O)c2ccc(Cl)cc2)CC1` (stereo partly drawn) [Compound 22, 4-((4-chlorophenyl)sulfonamido)-N—((S)-3,3-dimethylbutan-2-yl)-3-(4-methoxycyclohex-1-en-1-yl)-1-methyl-1H-pyrazole-5-carboxamide], the concentration for half-maximal inhibition (IC50) in assay [1] was less than 100 nM; in assay [2] it was 100 to 1000 nM.
With `Cc1ccc(S(=O)(=O)Nc2c(C3=CCC(F)(F)CC3)nn(C)c2C(=O)N[C@@H](C)C(C)(C)C)cc1` [Compound 29, (S)-3-(4,4-difluorocyclohex-1-en-1-yl)-N-(3,3-dimethylbutan-2-yl)-1-methyl-4-((4-methylphenyl)sulfonamido)-1H-pyrazole-5-carboxamide], the IC50 in assay [2] was greater than 25000 nM.
Regarding `Cc1ccc(S(=O)(=O)Nc2c(C3=CCOCC3)nn(C)c2C(=O)N[C@@H](C)C(C)(C)C)cc1` [Compound 30, (S)-3-(3,6-dihydro-2H-pyran-4-yl)-N-(3,3-dimethylbutan-2-yl)-1-methyl-4-((4-methylphenyl)sulfonamido)-1H-pyrazole-5-carboxamide], the IC50 in assay [2] was in the range of 1000 to 25000 nM.
Compound `Cc1ccc(S(=O)(=O)Nc2c(C3(O)CCOCC3)nn(C)c2C(=O)N[C@@H](C)C(C)(C)C)cc1` [Compound 31, (S)—N-(3,3-dimethylbutan-2-yl)-3-(4-hydroxytetrahydro-2H-pyran-4-yl)-1-methyl-4-((4-methylphenyl)sulfonamido)-1H-pyrazole-5-carboxamide] displayed a concentration for half-maximal inhibition (IC50) in assay [2] greater than 25000 nM.
On the same count and under the same terms, for `Cc1ccc(S(=O)(=O)Nc2c(C3=CCC(C#N)CC3)nn(C)c2C(=O)N[C@@H](C)C(C)(C)C)cc1` (stereo partly drawn) [Compound 32, 3-(4-cyanocyclohex-1-en-1-yl)-N—((S)-3,3-dimethylbutan-2-yl)-1-methyl-4-((4-methylphenyl)sulfonamido)-1H-pyrazole-5-carboxamide] the value was 1000 to 25000 nM.
As for `Cc1ccc(S(=O)(=O)Nc2c(-c3cccc(OC(F)(F)F)c3)nn(C)c2C(=O)N[C@@H](C)C(C)(C)C)cc1` [Compound 34, (S)—N-(3,3-dimethylbutan-2-yl)-1-methyl-4-((4-methylphenyl)sulfonamido)-3-(3-(trifluoromethoxy)phenyl)-1H-pyrazole-5-carboxamide], the IC50 in assay [2] is greater than 25000 nM.
`Cc1ccc(S(=O)(=O)Nc2c(-c3cccc(OCC(C)C)c3)nn(C)c2C(=O)N[C@@H](C)C(C)(C)C)cc1` [Compound 35, (S)—N-(3,3-dimethylbutan-2-yl)-3-(3-isobutoxyphenyl)-1-methyl-4-((4-methylphenyl)sulfonamido)-1H-pyrazole-5-carboxamide] showed a concentration for half-maximal inhibition (IC50) in assay [2] greater than 25000 nM.
On the same count and under the same terms, the same measure for `C[C@H](NC(=O)c1c(NS(=O)(=O)c2ccc(Cl)cc2)c(C2=CCC(F)(F)CC2)nn1C)C(C)(C)C` [Compound 36, (S)-4-((4-chlorophenyl)sulfonamido)-3-(4,4-difluorocyclohex-1-en-1-yl)-N-(3,3-dimethylbutan-2-yl)-1-methyl-1H-pyrazole-5-carboxamide]: greater than 25000 nM.
The same measure, in the same setting: for `COCc1cncc(-c2nn(C)c(C(=O)N[C@@H](C)C(C)(C)C)c2NS(=O)(=O)c2ccc(Cl)cc2)c1` [Compound 40, (S)-4-((4-chlorophenyl)sulfonamido)-N-(3,3-dimethylbutan-2-yl)-3-(5-(methoxymethyl)pyridin-3-yl)-1-methyl-1H-pyrazole-5-carboxamide] the value was 1000 to 25000 nM.
